From patent US20260008775A1, “AZOLE MODULATORS OF CHOLESTEROL BIOSYNTHESIS AND THEIR USE FOR PROMOTING REMYELINATION” (GENENTECH, INC., priority 2022, published 2026)

Tests used:
[1] = target: human emopamil binding protein and human 7-dehydrocholesterol reductase (hEBP-DHCR7) (Homo sapiens (Human), UniProt Q15125); experiment: hEBP-DHCR7 radioligand binding assay (filter binding, membranes of co-expressing HEK293 cells); conditions: competition with [3H] radioligand, 8 doses 0.06 to 5000 nM, Ki calculated from IC50
Outline: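 Compound, either single dose 1 μM or eight 5-fold dilutions from 0.06 to 5000 nM, competed with a [3H]-labelled ligand added at 25 nM for binding to co-expressing HEK293 membranes. IC50 came from nonlinear regression, with full block and DMSO as controls, then Cheng–Prusoff conversion to Ki.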

[2] = test system: EpiSC-derived OPCs; experiment: In vitro phenotypic screening of OPCs, MBP high-content imaging (percentage of oligodendrocytes); assay type: cell-based, mouse; conditions: Mus musculus, 72 h, 3 days, MBP stain, dose-response 0.5 nM to 1000 nM; read-out: OPC EC50
Method: To assess effects of treatments on OPCs, all treatments were assayed in two or more independent platings of epiblast stem cell-derived OPCs (EpiSC). EpiSC-derived OPCs were obtained using in vitro differentiation protocols and culture conditions described previously (Najm et al, 2011, Nature Methods). OPCs were expanded and frozen down in aliquots. OPCs were thawed into growth conditions for at least one passage before use in further assays.
EpiSC-derived OPCs were grown and expanded in poly-L-ornithine (PO) and laminin-coated flasks in N2B27 media (DMEM/F12 (Gibco), N2-MAX (R&D Systems), B-27 (ThermoFisher), and GlutaMax (Gibco)) supplemented with FGF2 (10 μg/mL, R&D systems, 233-FB-025) and PDGF-AA (10 μg/mL, R&D systems, 233-AA-050) before harvesting for experiments. The cells were seeded onto poly-L-ornithine or poly-D-lysine coated CellCarrier Ultra plates (PerkinElmer) coated with laminin (Sigma, L2020) at a density of 150,000/cm^2 in N2B27 media without growth factors. For dose-response testing, a 1000× compound stock in dimethyl sulphoxide (DMSO) was added to assay plates, resulting in 8-point dose curves with final concentrations between 1000 nM and 0.5 nM. Positive controls and DMSO vehicle controls were included in each assay plate. Cells were incubated under standard conditions (37° C., 5% CO2) for 3 days and fixed with 4% paraformaldehyde (PFA) in phosphate buffered saline (PBS) for 20 min. Fixed plates were washed with PBS, permeabilized with 0.1% Triton X-100, and blocked with 10% donkey serum (v/v) in PBS for 40 min. Then, cells were labelled with MBP antibodies (Abcam, ab7349; 1:200) for 2 h at room temperature, washed with PBS, and stained with Alexa Fluor conjugated secondary antibodies (1:500) for 45 min. Nuclei were visualized by DAPI staining (Sigma; […]), followed by further PBS washes.
Cells and cell culture plates were imaged on the Operetta High Content Imaging and Analysis system (PerkinElmer). Analysis (PerkinElmer Harmony and Columbus software) began by identifying intact nuclei stained by DAPI. The peri-nuclear region of each cell was then cross-referenced with the mature myelin protein (MBP) stain to identify oligodendrocyte nuclei, and from this the percentage of oligodendrocytes was calculated. EC50 values were calculated using The Levenberg-Marquardt algorithm to fit a Hill equation to dose-response data (0.5 nM to 1000 nM).

[3] = test system: zymostenol accumulation (EBP) in EpiSC-derived OPCs; experiment: GC/MS-based sterol profiling, zymostenol accumulation in EpiSC-derived OPCs; assay type: cell-based, mouse; conditions: Mus musculus, 24 h, EpiSC-derived OPCs, 24 hr, 8 doses from 0.15 nM to 333 nM; read-out: Mouse Zymostenol GCMS EC50
Outline: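 Zymostenol level is expressed relative to that after 24 h with 100 nM positive-control reference, measured by full-scan GC/MS (m/z 458) with cholesterol-d7 internal standard after BSTFA derivatisation. Cells were EpiSC-derived OPCs, 100,000/well in N2B27 without growth factors, treated 24 h, from two or more independent platings.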

human emopamil binding protein and human 7-dehydrocholesterol reductase (hEBP-DHCR7), sequence (Q15125 whole entry): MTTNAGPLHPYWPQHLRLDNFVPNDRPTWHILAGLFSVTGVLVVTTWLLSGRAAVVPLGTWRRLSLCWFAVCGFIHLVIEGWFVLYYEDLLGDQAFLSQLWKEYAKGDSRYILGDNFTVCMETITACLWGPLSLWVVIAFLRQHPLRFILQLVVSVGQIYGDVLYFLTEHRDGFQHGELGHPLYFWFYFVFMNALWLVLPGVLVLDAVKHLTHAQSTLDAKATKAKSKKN

Ki [1] | EC50 [2] | EC50 [3] | Structure (SMILES)
9.73 nM | 4.81 nM | 1.85 nM | CC(C)n1nc(-c2ccc(C(F)(F)F)c(F)c2)nc1[C@@H]1CC[C@H](N2CCOCC2)C1 (single isomer, unassigned) [Compound 113*]
12 nM | 11.3 nM | 7.66 nM | CC(C)n1nc(-c2ccc(OC(F)(F)F)cc2)cc1[C@H]1[C@@H]2C[C@H](N3CCCOCC3)C[C@@H]21 [Compound 185*, 4-((1R,3r,5S,6r)-6-(1-Isopropyl-3-(4-(trifluoromethoxy)phenyl)-1H-pyrazol-5-yl)bicyclo[3.1.0]hexan-3-yl)-1,4-oxazepane]
9.63 nM | 25.1 nM | 10.9 nM | CC(C)n1nc(-c2cccc(OC(F)(F)F)c2)cc1[C@H]1[C@@H]2C[C@@H](N3CCCOCC3)C[C@@H]21 [Compound 190*, 4-((1R,3s,5S,6r)-6-(1-isopropyl-3-(3-(trifluoromethoxy)phenyl)-1H-pyrazol-5-yl)bicyclo[3.1.0]hexan-3-yl)-1,4-oxazepane]
169 nM | 549 nM | 122 nM | CC(C)n1nc(-c2cncc(F)c2)cc1[C@H]1[C@@H]2C[C@@H](N3CCCOCC3)C[C@@H]21 [Compound 188*, 4-((1R,3s,5S,6r)-6-(3-(5-fluoropyridin-3-yl)-1-isopropyl-1H-pyrazol-5-yl)bicyclo[3.1.0]hexan-3-yl)-1,4-oxazepane]
19.4 nM | 30.5 nM | 5.33 nM | CC(C)n1nc(-c2cncc(C(F)(F)F)c2)cc1[C@H]1[C@@H]2C[C@@H](N3CCOC(C)(C)C3)C[C@@H]21 [Compound 33, 4-((1R,3s,5S,6r)-6-(1-Isopropyl-3-(5-(trifluoromethyl)pyridin-3-yl)-1H-pyrazol-5-yl)bicyclo[3.1.0]hexan-3-yl)-2,2-dimethylmorpholine]
32.5 nM | 90 nM | 14.8 nM | CC(C)n1nc(-c2cncc(C(F)(F)F)c2)cc1[C@H]1[C@@H]2CC(N3CCCOCC3)C[C@@H]21 (single isomer, unassigned) [30*]
134 nM | 108 nM | 19.7 nM | FC(F)(F)c1cccc(-c2nc([C@@H]3CC[C@@H](N4CCCOCC4)C3)n(C3CC3)n2)n1 (single isomer, unassigned) [11*]
13.1 nM | 18.3 nM | 1.73 nM | CC(C)n1nc(-c2cncc(C(F)(F)F)c2)cc1[C@@H]1CC[C@H](N2CCCOCC2)C1 (single isomer, unassigned) [62*]
27.5 nM | 97.3 nM | 21.4 nM | CC(C)n1nc(-c2cnc(C(F)(F)F)nc2)cc1[C@H]1[C@@H]2C[C@H](N3CCOCC3)C[C@@H]21 [Compound 203, 4-((1R,3r,5S,6r)-6-(1-isopropyl-3-(2-(trifluoromethyl)pyrimidin-5-yl)-1H-pyrazol-5-yl)bicyclo[3.1.0]hexan-3-yl)morpholine]
52.7 nM | 196 nM | 44.2 nM | CC(C)n1nc(-c2ccc(C(F)(F)F)nc2)nc1[C@H]1CC[C@H](N2CCCOCC2)C1 [Compound 5, 4-((1S,3S)-3-(1-isopropyl-3-(6-(trifluoromethyl)pyridin-3-yl)-1H-1,2,4-triazol-5-yl)cyclopentyl)-1,4-oxazepane]
47.6 nM | 71 nM | 9.32 nM | CC(C)n1nc(-c2cncc(C(F)(F)F)c2)cc1[C@H]1[C@@H]2C[C@H](N3C[C@@H]4C[C@H]3CO4)C[C@@H]21 (single isomer, unassigned) [38*]

Second part, the compound before the results:

Structure (SMILES) | Ki [1] | EC50 [2] | EC50 [3]
FC(F)(F)c1cccc(-c2nc([C@@H]3CC[C@H](N4CCCOCC4)C3)n(C3CC3)n2)n1 (single isomer, unassigned) [12*] | 120 nM | 63.8 nM | 64 nM
CC(C)n1nc(-c2cnc(C(F)(F)F)nc2)nc1[C@H]1[C@@H]2C[C@H](N3CCOC[C@H]3C)C[C@@H]21 [Compound 204, (R)-4-((1R,3r,5S,6r)-6-(1-isopropyl-3-(2-(trifluoromethyl)pyrimidin-5-yl)-1H-1,2,4-triazol-5-yl)bicyclo[3.1.0]hexan-3-yl)-3-methylmorpholine] | 16 nM | 6 nM | 2.07 nM
CC(C)n1nc(-c2cncc(C(F)(F)F)c2)cc1[C@H]1CC[C@@H](N2CCOCC2)CC1 [1*, 4-((1s,4s)-4-(1-isopropyl-3-(5-(trifluoromethyl)pyridin-3-yl)-1H-pyrazol-5-yl)cyclohexyl)morpholine] | 38.9 nM | 80.6 nM | 20.9 nM
CC(C)n1nc(-c2cccc(C(F)(F)F)c2)nc1[C@H]1[C@@H]2C[C@H](N3CCOCC3)C[C@@H]21 [19*, 4-((1R,3r,5S,6r)-6-(1-isopropyl-3-(3-(trifluoromethyl)phenyl)-1H-1,2,4-triazol-5-yl)bicyclo[3.1.0]hexan-3-yl)morpholine] | 9.93 nM | 140 nM | 7.92 nM
Cc1ccccc1-c1cc([C@H]2[C@@H]3C[C@@H](N4CCCOCC4)C[C@@H]32)n(C(C)C)n1 (single isomer, unassigned) [Compound 198*] | 20.2 nM | 105 nM | 41.3 nM
CC(C)n1nc(-c2cncc(C(F)(F)F)c2)nc1[C@H]1[C@@H]2C[C@H](N3CCCOCC3)C[C@@H]21 [Compound 51, 4-((1R,3r,5S,6r)-6-(1-Isopropyl-3-(5-(trifluoromethyl)pyridin-3-yl)-1H-1,2,4-triazol-5-yl)bicyclo[3.1.0]hexan-3-yl)-1,4-oxazepane] | 358 nM | 82.5 nM | 77 nM
CC(C)n1nc(-c2ccc(C#N)cc2)cc1[C@H]1[C@@H]2C[C@H](N3CCCOCC3)C[C@@H]21 [Compound 179*, 4-(5-((1R,3r,5S,6r)-3-(1,4-Oxazepan-4-yl)bicyclo[3.1.0]hexan-6-yl)-1-isopropyl-1H-pyrazol-3-yl)benzonitrile] | 10.9 nM | 26.4 nM | 0.952 nM
CC(C)n1nc(-c2cncc(C(F)(F)F)c2)cc1[C@H]1[C@@H]2C[C@H](N3CCOC[C@H]3C)C[C@@H]21 (single isomer, unassigned) [46*] | 34.8 nM | 0.907 nM | 1.42 nM
CC[C@@H]1CN([C@@H]2CC[C@H](c3nc(-c4cnc(C(F)(F)F)nc4)nn3C(C)C)C2)CCO1 (single isomer, unassigned) [Compound 109*] | 164 nM | 285 nM | 44 nM
CC(C)n1nc(-c2ccc(C(F)(F)F)c(F)c2)nc1[C@@H]1CC[C@@H](N2CCOCC2)C1 (single isomer, unassigned) [Compound 114*] | 14.7 nM | 25.7 nM | 8 nM
CC(C)n1nc(-c2ccc(F)cc2)cc1[C@H]1[C@@H]2C[C@H](N3CCCOCC3)C[C@@H]21 [Compound 183*, 4-((1R,3r,5S,6r)-6-(3-(4-Fluorophenyl)-1-isopropyl-1H-pyrazol-5-yl)bicyclo[3.1.0]hexan-3-yl)-1,4-oxazepane] | 10.6 nM | 13.1 nM | 8.6 nM
CC(C)n1nc(-c2cc(C(F)(F)F)ncn2)cc1[C@H]1[C@@H]2C[C@H](N3CCOC[C@H]3C)C[C@@H]21 [Compound 106, (R)-4-((1R,3r,5S,6R)-6-(1-Isopropyl-3-(6-(trifluoromethyl)pyrimidin-4-yl)-1H-pyrazol-5-yl)bicyclo[3.1.0]hexan-3-yl)-3-methylmorpholine] | 15.1 nM | 11.4 nM | 3.87 nM
CC(C)n1nc(-c2ccc(C(F)(F)F)c(F)c2)nc1[C@H]1CC[C@@H](N2CCOCC2)C1 (single isomer, unassigned) [Compound 111*] | 45 nM | 6.15 nM | 1.64 nM
